Assay results published in US10660877B2 (BRISTOL-MYERS SQUIBB COMPANY, priority 2016, dated 2020).
Like-named read-outs stand apart in the source and are kept apart here.

How the values were obtained:
human TLR9 = human TLR9 (Homo sapiens (Human), UniProt Q9NR96); experiment: TLR9 inhibition reporter assay (HEK-Blue cells, SEAP reporter, ODN2006 stimulation);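 further: compounds tested over 0.05 nM to 50 µM, 22 h incubation, inhibition taken as SEAP signal drop from agonist plus DMSO wells toward a known inhibitor control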
Chain of human TLR9 (Q9NR96 26-1032): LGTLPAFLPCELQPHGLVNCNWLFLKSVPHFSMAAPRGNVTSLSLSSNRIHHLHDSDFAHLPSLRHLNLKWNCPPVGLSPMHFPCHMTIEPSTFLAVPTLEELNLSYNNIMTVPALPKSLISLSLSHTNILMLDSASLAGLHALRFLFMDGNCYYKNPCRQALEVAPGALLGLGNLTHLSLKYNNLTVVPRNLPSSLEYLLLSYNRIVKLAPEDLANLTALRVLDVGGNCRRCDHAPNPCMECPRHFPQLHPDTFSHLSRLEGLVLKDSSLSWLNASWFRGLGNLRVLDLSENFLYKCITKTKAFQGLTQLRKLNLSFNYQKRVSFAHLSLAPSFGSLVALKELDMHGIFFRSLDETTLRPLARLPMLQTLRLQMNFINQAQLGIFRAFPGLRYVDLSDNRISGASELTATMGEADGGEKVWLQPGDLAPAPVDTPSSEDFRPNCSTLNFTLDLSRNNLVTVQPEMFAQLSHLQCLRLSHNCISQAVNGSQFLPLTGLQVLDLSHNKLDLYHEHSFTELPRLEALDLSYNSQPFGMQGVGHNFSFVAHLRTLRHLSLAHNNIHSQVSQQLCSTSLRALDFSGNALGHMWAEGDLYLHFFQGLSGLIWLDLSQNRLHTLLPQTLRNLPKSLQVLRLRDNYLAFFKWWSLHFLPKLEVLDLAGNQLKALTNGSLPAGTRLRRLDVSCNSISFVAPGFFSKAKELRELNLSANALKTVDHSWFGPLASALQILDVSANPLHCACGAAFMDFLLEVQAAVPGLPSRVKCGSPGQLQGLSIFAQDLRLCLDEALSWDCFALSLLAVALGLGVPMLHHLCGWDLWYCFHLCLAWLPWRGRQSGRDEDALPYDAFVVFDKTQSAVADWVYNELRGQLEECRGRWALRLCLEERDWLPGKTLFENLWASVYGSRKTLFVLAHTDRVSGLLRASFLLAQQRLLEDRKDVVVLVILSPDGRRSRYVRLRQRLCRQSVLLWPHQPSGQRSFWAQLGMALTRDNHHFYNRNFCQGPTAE

human TLR7 = human TLR7 (Homo sapiens (Human), UniProt Q9NYK1); experiment: TLR7 inhibition reporter assay (HEK-Blue cells, SEAP reporter, gardiquimod stimulation); format: cell-based
Chain of human TLR7 (Q9NYK1 27-1049): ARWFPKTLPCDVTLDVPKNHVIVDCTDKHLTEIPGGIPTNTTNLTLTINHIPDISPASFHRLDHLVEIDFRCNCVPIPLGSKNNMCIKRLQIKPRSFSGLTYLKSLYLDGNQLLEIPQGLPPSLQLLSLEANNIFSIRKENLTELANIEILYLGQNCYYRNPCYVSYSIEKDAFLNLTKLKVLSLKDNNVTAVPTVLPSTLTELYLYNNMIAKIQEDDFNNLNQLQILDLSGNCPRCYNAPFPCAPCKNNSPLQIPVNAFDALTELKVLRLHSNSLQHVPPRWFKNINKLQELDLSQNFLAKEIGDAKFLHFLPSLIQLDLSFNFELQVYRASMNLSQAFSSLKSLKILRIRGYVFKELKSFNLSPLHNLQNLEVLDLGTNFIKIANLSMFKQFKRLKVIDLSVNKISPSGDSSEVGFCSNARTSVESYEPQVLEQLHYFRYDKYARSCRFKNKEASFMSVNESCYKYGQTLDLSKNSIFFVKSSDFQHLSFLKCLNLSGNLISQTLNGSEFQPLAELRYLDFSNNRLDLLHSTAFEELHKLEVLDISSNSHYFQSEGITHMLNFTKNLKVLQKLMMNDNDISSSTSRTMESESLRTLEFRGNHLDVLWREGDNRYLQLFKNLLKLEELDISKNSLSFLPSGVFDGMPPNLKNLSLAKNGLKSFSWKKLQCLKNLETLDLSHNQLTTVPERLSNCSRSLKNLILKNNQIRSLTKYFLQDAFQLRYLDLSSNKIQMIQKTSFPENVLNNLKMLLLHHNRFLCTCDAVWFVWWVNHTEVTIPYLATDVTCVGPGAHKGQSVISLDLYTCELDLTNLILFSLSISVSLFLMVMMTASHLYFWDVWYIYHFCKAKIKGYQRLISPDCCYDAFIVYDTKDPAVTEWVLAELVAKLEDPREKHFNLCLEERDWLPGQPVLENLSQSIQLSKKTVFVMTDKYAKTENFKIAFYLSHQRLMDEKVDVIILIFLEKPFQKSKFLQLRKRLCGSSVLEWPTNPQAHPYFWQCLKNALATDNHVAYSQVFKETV

human TLR8 = human TLR8 (Homo sapiens (Human), UniProt Q9NR97); experiment: TLR8 inhibition reporter assay (HEK-Blue cells, SEAP reporter, R848 stimulation);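 further: compounds tested from 0.05 nM to 50 µM, 22 h at 37 °C, SEAP measured with HEK-Blue Detection, inhibition relative to agonist plus DMSO versus a known inhibitor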
Chain of human TLR8 (Q9NR97 27-1041): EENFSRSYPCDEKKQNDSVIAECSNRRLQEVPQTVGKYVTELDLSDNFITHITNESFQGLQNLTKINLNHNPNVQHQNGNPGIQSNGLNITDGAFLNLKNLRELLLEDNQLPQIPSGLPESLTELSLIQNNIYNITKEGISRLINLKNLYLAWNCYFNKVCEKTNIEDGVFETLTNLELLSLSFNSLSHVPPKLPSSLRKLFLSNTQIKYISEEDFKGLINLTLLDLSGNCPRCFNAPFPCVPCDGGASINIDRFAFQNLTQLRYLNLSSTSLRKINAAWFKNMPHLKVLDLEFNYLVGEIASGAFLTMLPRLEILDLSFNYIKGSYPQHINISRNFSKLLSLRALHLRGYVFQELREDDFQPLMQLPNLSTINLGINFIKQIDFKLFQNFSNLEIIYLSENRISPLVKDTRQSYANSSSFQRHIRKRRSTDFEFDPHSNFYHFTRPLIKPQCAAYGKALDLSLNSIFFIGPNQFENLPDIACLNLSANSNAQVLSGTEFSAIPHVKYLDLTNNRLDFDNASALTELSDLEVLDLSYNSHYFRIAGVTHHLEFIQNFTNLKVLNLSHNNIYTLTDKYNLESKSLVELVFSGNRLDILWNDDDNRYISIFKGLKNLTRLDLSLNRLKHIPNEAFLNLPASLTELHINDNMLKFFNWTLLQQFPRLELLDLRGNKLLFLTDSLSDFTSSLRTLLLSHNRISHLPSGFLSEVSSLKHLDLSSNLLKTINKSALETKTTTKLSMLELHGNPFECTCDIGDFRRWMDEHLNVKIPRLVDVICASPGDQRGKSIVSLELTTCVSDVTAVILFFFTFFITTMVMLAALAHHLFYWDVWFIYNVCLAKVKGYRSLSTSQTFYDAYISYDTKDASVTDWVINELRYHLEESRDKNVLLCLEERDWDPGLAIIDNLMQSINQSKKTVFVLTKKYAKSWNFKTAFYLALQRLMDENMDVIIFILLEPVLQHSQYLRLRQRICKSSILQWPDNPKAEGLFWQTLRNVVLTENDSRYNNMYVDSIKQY

[1] = read-out: TLR9 IC50, HEK-Blue cells overexpressing human TLR9, ODN2006 5 nM
[2] = HEK-Blue cells overexpressing human TLR7, gardiquimod 7.5 μM
[3] = read-out: TLR8 IC50, HEK-Blue cells overexpressing human TLR8, R848 15.9 μM
[4] = read-out: TLR9 IC50, HEK-Blue cells, ODN2006 5 nM
[5] = HEK-Blue cells, gardiquimod 7.5 μM
[6] = read-out: TLR8 IC50, HEK-Blue cells, R848 15.9 μM

Structure (SMILES)	IC50 (human TLR9; [1]) [nM]	IC50 (human TLR7; [2]) [nM]	IC50 (human TLR8; [3]) [nM]	IC50 (human TLR9; [4]) [nM]	IC50 (human TLR7; [5]) [nM]	IC50 (human TLR8; [6]) [nM]
Cc1cc(-c2[nH]c3ccc(C4CCN(C5CC(C)OC(C)C5)CC4)cc3c2C(C)C)cc(C)n1 (stereo not drawn) [Example 455, 2-(2,6-dimethylpyridin-4-yl)-5-(1-(2,6-dimethyltetrahydro-2H-pyran-4-yl)piperidin-4-yl)-3-isopropyl-1H-indole]	390	10.9	7.6	–	–	–
Cc1cc(-c2[nH]c3ccc(C4CCN(S(=O)(=O)c5ccc(F)cc5)CC4)cc3c2C(C)C)ccn1 [Example 551, 5-(1-((4-fluorophenyl)sulfonyl)piperidin-4-yl)-3-isopropyl-2-(2-methylpyridin-4-yl)-1H-indole]	> 50000	486	1030	–	–	–
Cc1cc(-c2[nH]c3ccc(C4CCN(C(=O)CN5CCC[C@@H]5CO)CC4)cc3c2C(C)C)cc(C)n1 [Example 412, (R)-1-(4-(2-(2,6-dimethylpyridin-4-yl)-3-isopropyl-1H-indol-5-yl)piperidin-1-yl)-2-(2-(hydroxymethyl)pyrrolidin-1-yl)ethan-1-one]	568	4.7	34	–	–	–
Cc1cc(-c2[nH]c3ccc(C4CCN(CC(=O)N5C[C@@H](C(F)(F)F)C[C@H]5CO)CC4)cc3c2C(C)C)cc(C)n1 [Example 291, 2-(4-(2-(2,6-dimethylpyridin-4-yl)-3-isopropyl-1H-indol-5-yl)piperidin-1-yl)-1-((2S,4S)-2-(hydroxymethyl)-4-(trifluoromethyl)pyrrolidin-1-yl)ethan-1-one]	3200	18.1	124	–	–	–
CCc1c(-c2cc(Cl)ncc2OC)[nH]c2ccc(C3CCN(C4CCN(CC(C)C)CC4)CC3)cc12 [Example 763, 2-(2-chloro-5-methoxypyridin-4-yl)-3-ethyl-5-(1′-isobutyl-[1,4′-bipiperidin]-4-yl)-1H-indole]	1900	4950	514	–	–	–
Cc1cc(-c2[nH]c3ccc(C4CCNCC4)cc3c2C2CC2)cc(C)n1 [Example 93, 3-cyclopropyl-2-(2,6-dimethylpyridin-4-yl)-5-(piperidin-4-yl)-1H-indole]	122	3.3	9.2	–	–	–
Cc1cc(-c2[nH]c3ccc(C4CCN(CC(O)C(F)(F)F)CC4)cc3c2C(C)C)cc(C)n1 (stereo not drawn) [Example 313, 3-(4-(2-(2,6-dimethylpyridin-4-yl)-3-isopropyl-1H-indol-5-yl)piperidin-1-yl)-1,1,1-trifluoropropan-2-ol]	8060	39.9	6.3	–	–	–
Cc1cc(-c2[nH]c3ccc(C4CCN(C(=O)c5ccc6ccccn6c5=O)CC4)cc3c2C(C)C)cc(C)n1 [Example 145, 3-(4-(2-(2,6-dimethylpyridin-4-yl)-3-isopropyl-1H-indol-5-yl)piperidine-1-carbonyl)-4H-quinolizin-4-one]	> 50000	28.7	347	–	–	–
Cc1cc(-c2[nH]c3ccc(C4CCN(C5COC5)CC4)cc3c2C(C)C)ccn1 [Example 711, 3-isopropyl-2-(2-methylpyridin-4-yl)-5-(1-(oxetan-3-yl)piperidin-4-yl)-1H-indole]	2160	11	11.2	–	–	–
Cc1cc(-c2[nH]c3ccc(C4CCN(C)CC4)cc3c2C(C)C)cc(C)n1 [Example 429, 2-(2,6-dimethylpyridin-4-yl)-3-isopropyl-5-(1-methylpiperidin-4-yl)-1H-indole]	484	2.2	5.5	–	–	–
Cc1cc(-c2[nH]c3ccc(C4CCN(CC(=O)NC(C)(C)C)CC4)cc3c2C(C)C)cc(C)n1 [Example 217, N-(tert-butyl)-2-(4-(2-(2,6-dimethylpyridin-4-yl)-3-isopropyl-1H-indol-5-yl)piperidin-1-yl)acetamide]	1020	6.2	25.8	–	–	–
Cc1cc(-c2[nH]c3ccc(C4CCN(C(=O)C5CCOC(C(C)C)C5)CC4)cc3c2C(C)C)cc(C)n1 (stereo not drawn) [Example 200, (4-(2-(2,6-dimethylpyridin-4-yl)-3-isopropyl-1H-indol-5-yl)piperidin-1-yl)(2-isopropyltetrahydro-2H-pyran-4-yl) methanone]	11200	44.4	409	–	–	–
Cc1cc(-c2[nH]c3ccc(C4CCN(CC(O)C(C)(C)C)CC4)cc3c2C(C)C)cc(C)n1 (stereo not drawn) [Example 850, 1-(4-(2-(2,6-dimethylpyridin-4-yl)-3-isopropyl-1H-indol-5-yl)piperidin-1-yl)-3,3-dimethylbutan-2-ol]	–	–	–	312	3.8	4.7
Cc1cc(-c2[nH]c3ccc(C4CCN(CC(=O)N5CCC(O)CC5)CC4)cc3c2C(C)C)cc(C)n1 [Example 230, 2-(4-(2-(2,6-dimethylpyridin-4-yl)-3-isopropyl-1H-indol-5-yl)piperidin-1-yl)-1-(4-hydroxypiperidin-1-yl)ethan-1-one]	74	4	17	–	–	–
Cc1cc(-c2[nH]c3ccc(C4CCN(C(=O)C5CCOCC5)CC4)cc3c2C(C)C)cc(C)n1 [Example 198, (4-(2-(2,6-dimethylpyridin-4-yl)-3-isopropyl-1H-indol-5-yl)piperidin-1-yl)(tetrahydro-2H-pyran-4-yl)methanone]	30800	8.9	104	–	–	–
CCC(CC)NCC(=O)N1CCC(c2ccc3[nH]c(-c4cc(C)nc(C)c4)c(C(C)C)c3c2)CC1 [Example 345, 1-(4-(2-(2,6-dimethylpyridin-4-yl)-3-isopropyl-1H-indol-5-yl)piperidin-1-yl)-2-(pentan-3-ylamino)ethan-1-one]	544	12.3	34	–	–	–
Cc1cc(-c2[nH]c3ccc(C4CCN(C5CCCOC5)CC4)cc3c2C(C)C)c(F)cn1 (stereo not drawn) [Example 727, 2-(5-fluoro-2-methylpyridin-4-yl)-3-isopropyl-5-(1-(tetrahydro-2H-pyran-3-yl)piperidin-4-yl)-1H-indole]	2920	7.3	3.5	–	–	–
COCCOCC(=O)N1CCC(c2ccc3[nH]c(-c4cc(C)nc(C)c4)c(C(C)C)c3c2)CC1 [Example 114, 1-(4-(2-(2,6-dimethylpyridin-4-yl)-3-isopropyl-1H-indol-5-yl)piperidin-1-yl)-2-(2-methoxyethoxy)ethan-1-one]	47200	3.1	82.5	–	–	–
CNCC(=O)N1CCC(c2ccc3[nH]c(-c4cc(C)nc(C)c4)c(CC(F)F)c3c2)CC1 [Example 535, 1-(4-(3-(2,2-difluoroethyl)-2-(2,6-dimethylpyridin-4-yl)-1H-indol-5-yl)piperidin-1-yl)-2-(methylamino)ethan-1-one]	258	10	86.5	–	–	–
Cc1cc(-c2[nH]c3ccc(C4CCN(C(=O)CN(C)CC(C)(C)O)CC4)cc3c2C(C)C)cc(C)n1 [Example 401, 1-(4-(2-(2,6-dimethylpyridin-4-yl)-3-isopropyl-1H-indol-5-yl)piperidin-1-yl)-2-((2-hydroxy-2-methylpropyl)(methyl)amino) ethan-1-one]	1060	9	53	–	–	–
Cc1cc(-c2[nH]c3ccc(C4CCN(C(=O)CCNS(=O)(=O)c5ccccc5)CC4)cc3c2C(C)C)cc(C)n1 [Example 120, N-(3-(4-(2-(2,6-dimethylpyridin-4-yl)-3-isopropyl-1H-indol-5-yl)piperidin-1-yl)-3-oxopropyl)benzenesulfonamide]	16200	12.5	158	–	–	–
Cc1cc(-c2[nH]c3ccc(C4CCN(CC(O)C(C)C)CC4)cc3c2C(C)C)cc(C)n1 (stereo not drawn) [Example 855, 1-(4-(2-(2,6-dimethylpyridin-4-yl)-3-isopropyl-1H-indol-5-yl)piperidin-1-yl)-3-methylbutan-2-ol]	–	–	–	3300	21.1	1.5
Cc1cc(-c2[nH]c3ccc(C4CCN(CC(F)F)CC4)cc3c2C(C)C)c(F)cn1 [Example 649, 5-(1-(2,2-difluoroethyl)piperidin-4-yl)-2-(5-fluoro-2-methylpyridin-4-yl)-3-isopropyl-1H-indole]	> 50000	45.7	16.2	–	–	–
CNC(C)(C)C(=O)N1CCC(c2ccc3[nH]c(-c4cc(C)nc(C)c4)c(C(C)C)c3c2)CC1 [Example 187, 1-(4-(2-(2,6-dimethylpyridin-4-yl)-3-isopropyl-1H-indol-5-yl)piperidin-1-yl)-2-methyl-2-(methylamino)propan-1-one]	971	1.7	10.5	–	–	–
Cc1cc(-c2[nH]c3ccc(C4CCN(CC(=O)N(C)[C@H]5CCOC5)CC4)cc3c2C(C)C)cc(C)n1 [Example 307, (S)-2-(4-(2-(2,6-dimethylpyridin-4-yl)-3-isopropyl-1H-indol-5-yl)piperidin-1-yl)-N-methyl-N-(tetrahydrofuran-3-yl)acetamide]	3680	17.7	87.2	–	–	–
Cc1cc(-c2[nH]c3ccc(C4CCN(CC(=O)NCC(F)(F)F)CC4)cc3c2C(C)C)cc(C)n1 [Example 214, 2-(4-(2-(2,6-dimethylpyridin-4-yl)-3-isopropyl-1H-indol-5-yl)piperidin-1-yl)-N-(2,2,2-trifluoroethyl)acetamide]	1220	6.2	12.8	–	–	–
CNC(=O)C(=O)N1CCC(c2ccc3[nH]c(-c4cc(C)nc(C)c4)c(C(C)C)c3c2)CC1 [Example 205, 2-(4-(2-(2,6-dimethylpyridin-4-yl)-3-isopropyl-1H-indol-5-yl)piperidin-1-yl)-N-methyl-2-oxoacetamide]	19200	4.4	76.3	–	–	–
